According to publication PMC12799524, “Putative new biomarkers for renal transporter-mediated drug-drug interactions: Characterization as substrates of organic cation transporter 2, multidrug and toxin extrusion protein 1, and other important drug transporters” (Drug Metabolism and Disposition, 2025):

T1: MATE1 (Homo sapiens, UniProt Q96FL8)
T1 sequence (Q96FL8 1-570): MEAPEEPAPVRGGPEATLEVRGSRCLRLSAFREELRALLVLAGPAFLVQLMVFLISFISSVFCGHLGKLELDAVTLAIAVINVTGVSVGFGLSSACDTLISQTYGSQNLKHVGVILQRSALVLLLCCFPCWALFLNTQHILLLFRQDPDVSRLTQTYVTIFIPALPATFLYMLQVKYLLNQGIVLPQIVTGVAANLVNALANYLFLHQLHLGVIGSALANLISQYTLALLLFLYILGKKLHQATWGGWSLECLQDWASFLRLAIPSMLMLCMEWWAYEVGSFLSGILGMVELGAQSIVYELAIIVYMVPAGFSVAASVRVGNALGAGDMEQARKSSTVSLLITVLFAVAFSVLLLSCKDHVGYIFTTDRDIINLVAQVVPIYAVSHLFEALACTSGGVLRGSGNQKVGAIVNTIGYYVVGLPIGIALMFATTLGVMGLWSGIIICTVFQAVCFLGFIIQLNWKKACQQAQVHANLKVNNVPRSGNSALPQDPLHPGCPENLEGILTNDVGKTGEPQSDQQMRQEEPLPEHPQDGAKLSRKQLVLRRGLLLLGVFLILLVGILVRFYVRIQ

T2: human OCT2 (Homo sapiens, UniProt O15244)
T2 sequence (O15244 1-555): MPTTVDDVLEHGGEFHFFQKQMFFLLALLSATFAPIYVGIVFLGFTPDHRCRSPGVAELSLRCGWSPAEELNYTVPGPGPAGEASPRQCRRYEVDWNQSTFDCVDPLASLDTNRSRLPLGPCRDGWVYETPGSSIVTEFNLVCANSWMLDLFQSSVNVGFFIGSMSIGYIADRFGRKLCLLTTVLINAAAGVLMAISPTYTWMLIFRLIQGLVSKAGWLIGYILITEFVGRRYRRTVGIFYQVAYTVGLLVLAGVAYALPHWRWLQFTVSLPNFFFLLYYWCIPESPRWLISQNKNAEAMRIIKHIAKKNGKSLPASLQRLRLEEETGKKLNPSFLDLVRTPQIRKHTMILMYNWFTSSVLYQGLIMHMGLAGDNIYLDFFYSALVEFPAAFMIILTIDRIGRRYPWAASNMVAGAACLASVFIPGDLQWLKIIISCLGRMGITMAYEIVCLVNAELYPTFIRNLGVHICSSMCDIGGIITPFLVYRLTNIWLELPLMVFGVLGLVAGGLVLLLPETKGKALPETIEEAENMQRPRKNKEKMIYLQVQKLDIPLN


Legend:
[1] = biological target: T1, MATE1; assay: Uptake assay in HEK-MATE1 vs HEK-VC cells (pH 8.0); settings: 0 minutes and 5 minutes without added substance
Protocol: (§1) Transport experiments were performed 48 hours after seeding.
(§2) The intracellular background of all 5 compounds in HEK cells at the beginning of the uptake experiments was investigated 48 hours after seeding without incubation with transport buffer (ie, 0 minutes). […] Then, cells were lysed with ice-cold 80% MeOH containing the aforementioned recovery standards. In addition, the impact of a 5-minute incubation period with transport buffer without added substance was investigated.

[2] = biological target: T2, human OCT2; assay: Uptake assay in HEK-OCT2 vs HEK-VC cells; type: in vitro ADME; parameters: expressed in transfected cells; host or cells: HEK293 (HEK-OCT2)
Protocol: as §1, §2

[3] = substrate: NCCc1c[nH]c2ccc(O)cc12

Molecule	Intracellular background in HEK-MATE1 cells compared to HEK-VC cells [1]	Intracellular background in HEK-OCT2 cells compared to HEK-VC cells ([2]; 0 minutes, without added substance)	Intracellular background in HEK-OCT2 cells compared to HEK-VC cells ([2]; 5 minutes in transport buffer without added substance)	Km [3]
N=C(N)NCCCC(=O)O [4-Guanidinobutanoic acid, 4-guanidinobutanoic acid]	significantly lower	significantly higher	reduced to the amount in HEK-VC cells	
human OCT2 (Homo sapiens) (protein) MPTTVDDVLEHGGEFHFFQKQMFFLLALLSATFAPIYVGIVFLGFTPDHRCRSPGVAELSLRCGWSPAEELNYTVPGPGPAGEASPRQCRRYEVDWNQSTFDCVDPLASLDTNRSRLPLGPCRDGWVYETPGSSIVTEFNLVCANSWMLDLFQSSVNVGFFIGSMSIGYIADRFGRKLCLLTTVLINAAAGVLMAISPTYTWMLIFRLIQGLVSKAGWLIGYILITEFVGRRYRRTVGIFYQVAYTVGLLVLAGVAYALPHWRWLQFTVSLPNFFFLLYYWCIPESPRWLISQNKNAEAMRIIKHIAKKNGKSLPASLQRLRLEEETGKKLNPSFLDLVRTPQIRKHTMILMYNWFTSSVLYQGLIMHMGLAGDNIYLDFFYSALVEFPAAFMIILTIDRIGRRYPWAASNMVAGAACLASVFIPGDLQWLKIIISCLGRMGITMAYEIVCLVNAELYPTFIRNLGVHICSSMCDIGGIITPFLVYRLTNIWLELPLMVFGVLGLVAGGLVLLLPETKGKALPETIEEAENMQRPRKNKEKMIYLQVQKLDIPLN				412.0 ± 143.6 µM
